Assay results published in patent US12473304B2, “Heterocyclic PAD4 inhibitors” (BRISTOL-MYERS SQUIBB COMPANY, priority 2020, dated 2025).
pIC50: −log10 of the molar value.

molecular target: human PAD4 (hPAD4) (Homo sapiens (Human), UniProt Q9UM07); assay: RFMS Human PAD4 Functional Assay 1; assay type: biochemical; settings: RFMS assay 1; 5 nM hPAD4, 250 μM BAEE substrate, 50 μM calcium, 37° C.
Method in brief: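 Citrullination product read by RapidFire triple-quad MRM against a modified-citrulline internal standard, after TCA stop and 30 min phenyl glyoxal step at 37 °C. Reaction: 250 μM BAEE, 5 nM human PAD4, 90 min at 37 °C, pH 7.5 HEPES buffer with 50 μM calcium and 5 μM TPEN, following 30 min compound–enzyme preincubation (max 50 μM).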

Sequence of human PAD4 (hPAD4) (Q9UM07 whole entry): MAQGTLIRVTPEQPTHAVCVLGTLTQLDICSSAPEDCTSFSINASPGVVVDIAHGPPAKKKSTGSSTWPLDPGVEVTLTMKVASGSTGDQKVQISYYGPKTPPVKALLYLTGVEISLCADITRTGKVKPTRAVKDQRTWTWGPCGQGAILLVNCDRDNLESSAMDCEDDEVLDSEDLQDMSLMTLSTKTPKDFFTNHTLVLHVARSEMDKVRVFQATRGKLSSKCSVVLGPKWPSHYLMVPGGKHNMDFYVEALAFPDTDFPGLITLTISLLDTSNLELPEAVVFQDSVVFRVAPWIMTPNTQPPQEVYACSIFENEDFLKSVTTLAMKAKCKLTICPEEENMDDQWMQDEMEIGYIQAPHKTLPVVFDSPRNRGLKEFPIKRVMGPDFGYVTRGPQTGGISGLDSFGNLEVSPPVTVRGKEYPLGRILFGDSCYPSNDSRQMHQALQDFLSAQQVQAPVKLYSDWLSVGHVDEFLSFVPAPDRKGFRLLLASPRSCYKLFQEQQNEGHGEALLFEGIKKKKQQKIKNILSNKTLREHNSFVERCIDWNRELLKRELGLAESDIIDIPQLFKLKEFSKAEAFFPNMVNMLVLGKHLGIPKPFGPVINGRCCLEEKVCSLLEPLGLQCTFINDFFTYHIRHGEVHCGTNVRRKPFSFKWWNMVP

Structure (SMILES) | pIC50
COc1cc(C(=O)N2CC3CCC2[C@@H]3N)cc2sc(-c3cc4ccc(-c5ccn6c(C)nnc6c5)cc4n3CC3CC3)c(C)c12 (stereo partly drawn) [Example 122, ((7R)-7-Amino-2-azabicyclo[2.2.1]heptan-2-yl)(2-(1-(cyclopropylmethyl)-6-(3-methyl-[1,2,4]triazolo[4,3-a]pyridin-7-yl)-1H-indol-2-yl)-4-methoxy-3-methylbenzo[b]thiophen-6-yl)methanone] | 7.17
COc1cc(C(=O)N2CC3CCC2[C@@H]3N)cc2sc(-c3cc4ccc(-c5ccc(C(N)=O)c(Cl)c5)cc4n3CC3CC3)c(C)c12 (stereo partly drawn) [Example 125, 4-(2-(6-((7R)-7-Amino-2-azabicyclo[2.2.1]heptane-2-carbonyl)-4-methoxy-3-methylbenzo[b]thiophen-2-yl)-1-(cyclopropylmethyl)-1H-indol-6-yl)-2-chlorobenzamide] | 6.38
COc1cc(C(=O)N2CC3CCC2[C@@H]3N)cc2sc(-c3cc4ccc(C)cc4n3CC3CC3)c(C)c12 (stereo partly drawn) [Example 127, ((7R)-7-Amino-2-azabicyclo[2.2.1]heptan-2-yl)(2-(1-(cyclopropylmethyl)-6-methyl-1H-indol-2-yl)-4-methoxy-3-methylbenzo[b]thiophen-6-yl)methanone] | 7.01
COc1cc(C(=O)N2CC3CCC2[C@@H]3N)cc2sc(-c3cc4ccc(N5CCC(N)CC5)cc4n3CC3CC3)c(C)c12 (stereo partly drawn) [Example 130, ((7R)-7-Amino-2-azabicyclo[2.2.1]heptan-2-yl)(2-(6-(4-aminopiperidin-1-yl)-1-(cyclopropylmethyl)-1H-indol-2-yl)-4-methoxy-3-methylbenzo[b]thiophen-6-yl)methanone] | 7.42
COc1cc(C(=O)N2CC3CCC2[C@@H]3N)cc2sc(-c3cc4ccc(N5CCC(OC)CC5)cc4n3CC3CC3)c(C)c12 (stereo partly drawn) [Example 131, ((7R)-7-Amino-2-azabicyclo[2.2.1]heptan-2-yl)(2-(1-(cyclopropylmethyl)-6-(4-methoxypiperidin-1-yl)-1H-indol-2-yl)-4-methoxy-3-methylbenzo[b]thiophen-6-yl)methanone] | 6.84
COc1cc(C(=O)N2CC3CCC2[C@@H]3N)cc2sc(-c3cc4ccc(N5CCC(OC)CC5)nc4n3CC3CC3)c(C)c12 (stereo partly drawn) [Example 137, ((7R)-7-Amino-2-azabicyclo[2.2.1]heptan-2-yl)(2-(1-(cyclopropylmethyl)-6-(4-methoxypiperidin-1-yl)-1H-pyrrolo[2,3-b]pyridin-2-yl)-4-methoxy-3-methylbenzo[b]thiophen-6-yl)methanone] | 7.15
COc1cc(C(=O)N2C[C@H](N)C[C@@H](F)C2)cc2sc(-c3cc4cccnc4n3CC3CC3)c(C)c12 [Example 138, ((3R,5R)-3-Amino-5-fluoropiperidin-1-yl)(2-(1-(cyclopropylmethyl)-1H-pyrrolo[2,3-b]pyridin-2-yl)-4-methoxy-3-methylbenzo[b]thiophen-6-yl)methanone] | 6.60

Results, then the compound that gave them:

pIC50 | Structure (SMILES)
6.91 | COc1cc(C(=O)N2CC3CCC2[C@@H]3N)cc2sc(-c3cc4ccc(-c5ccc6c(c5)CNC6=O)cc4n3CC3CC3)c(C)c12 (stereo partly drawn) [Example 126, 5-(2-(6-((7R)-7-Amino-2-azabicyclo[2.2.1]heptane-2-carbonyl)-4-methoxy-3-methylbenzo[b]thiophen-2-yl)-1-(cyclopropylmethyl)-1H-indol-6-yl)isoindolin-1-one]
5.36 | COc1cc(C(=O)N2CC3CCC2[C@@H]3N)cc2sc(-c3cc4ccc(-c5cccc(F)c5C)cc4n3CC3CC3)c(C)c12 (stereo partly drawn) [Example 128, ((7R)-7-Amino-2-azabicyclo[2.2.1]heptan-2-yl)(2-(1-(cyclopropylmethyl)-6-(3-fluoro-2-methylphenyl)-1H-indol-2-yl)-4-methoxy-3-methylbenzo[b]thiophen-6-yl)methanone]
6.42 | COc1cc(-c2ccc3cc(-c4sc5cc(C(=O)N6CC7CCC6[C@@H]7N)cc(OC)c5c4C)n(CC4CC4)c3c2)ccn1 (stereo partly drawn) [Example 129, ((7R)-7-Amino-2-azabicyclo[2.2.1]heptan-2-yl)(2-(1-(cyclopropylmethyl)-6-(2-methoxypyridin-4-yl)-1H-indol-2-yl)-4-methoxy-3-methylbenzo[b]thiophen-6-yl)methanone]
6.32 | COc1cc(C(=O)N2CC3CCC2[C@@H]3N)cc2sc(-c3cc4ccc(-c5ccc6c(c5)CNC6=O)nc4n3CC3CC3)c(C)c12 (stereo partly drawn) [Example 132, 5-(2-(6-((7R)-7-Amino-2-azabicyclo[2.2.1]heptane-2-carbonyl)-4-methoxy-3-methylbenzo-[b]thiophen-2-yl)-1-(cyclopropylmethyl)-1H-pyrrolo[2,3-b]pyridin-6-yl)isoindolin-1-one]
6.89 | COc1cc(C(=O)N2CC3CCC2[C@@H]3N)cc2sc(-c3cc4ccc(-c5ccc(C(N)=O)c(F)c5)nc4n3CC3CC3)c(C)c12 (stereo partly drawn) [Example 133, 4-(2-(6-((7R)-7-Amino-2-azabicyclo[2.2.1]heptane-2-carbonyl)-4-methoxy-3-methylbenzo[b]thiophen-2-yl)-1-(cyclopropylmethyl)-1H-pyrrolo[2,3-b]pyridin-6-yl)-2-fluorobenzamide]
6.67 | COc1cc(C(=O)N2CC3CCC2[C@@H]3N)cc2sc(-c3cc4ccc(-c5cccc(O)c5F)nc4n3CC3CC3)c(C)c12 (stereo partly drawn) [Example 134, ((7R)-7-Amino-2-azabicyclo[2.2.1]heptan-2-yl)(2-(1-(cyclopropylmethyl)-6-(2-fluoro-3-hydroxyphenyl)-1H-pyrrolo[2,3-b]pyridin-2-yl)-4-methoxy-3-methylbenzo[b]thiophen-6-yl)methanone]
6.63 | COc1cc(C(=O)N2CC3CCC2[C@@H]3N)cc2sc(-c3cc4ccc(-c5ccc6c(c5)C(=O)NC6)nc4n3CC3CC3)c(C)c12 (stereo partly drawn) [Example 135, 6-(2-(6-((7R)-7-Amino-2-azabicyclo[2.2.1]heptane-2-carbonyl)-4-methoxy-3-methylbenzo[b]thiophen-2-yl)-1-(cyclopropylmethyl)-1H-pyrrolo[2,3-b]pyridin-6-yl)isoindolin-1-one]
6.15 | COc1cc(C(=O)N2CC3CCC2[C@@H]3N)cc2sc(-c3cc4ccc(-c5ccc(O)c(F)c5)nc4n3CC3CC3)c(C)c12 (stereo partly drawn) [Example 136, ((7R)-7-Amino-2-azabicyclo[2.2.1]heptan-2-yl)(2-(1-(cyclopropylmethyl)-6-(3-fluoro-4-hydroxyphenyl)-1H-pyrrolo[2,3-b]pyridin-2-yl)-4-methoxy-3-methylbenzo[b]thiophen-6-yl)methanone]
6.70 | COc1cc(C(=O)N2C[C@H](N)C[C@@H](F)C2)cc2sc(-c3cc4ccc(-c5ccc6c(c5)CNC6=O)nc4n3CC3CC3)c(C)c12 [Example 139, 5-(2-(6-((3R,5R)-3-Amino-5-fluoropiperidine-1-carbonyl)-4-methoxy-3-methylbenzo[b]thiophen-2-yl)-1-(cyclopropylmethyl)-1H-pyrrolo[2,3-b]pyridin-6-yl)isoindolin-1-one]
6.46 | COc1cc(C(=O)N2C[C@H](N)C[C@@H](F)C2)cc2sc(-c3cc4ccc(-c5ccc6c(c5)C(=O)NC6)nc4n3CC3CC3)c(C)c12 [Example 140, 6-(2-(6-((3R,5R)-3-Amino-5-fluoropiperidine-1-carbonyl)-4-methoxy-3-methylbenzo[b]thiophen-2-yl)-1-(cyclopropylmethyl)-1H-pyrrolo[2,3-b]pyridin-6-yl)isoindolin-1-one]
